A short description of assay [1]: Inhibition of Saccharomyces cerevisiae alpha-glucosidase using p-nitrophenyl-alpha-D-glucopyranoside as substrate after 30 mins.
Assay [2] concerns Mus musculus. Put plainly: Antihyperglycemic activity in nicotinamide/streptozotocin-induced ICR mouse hyperglycemic model assessed as decrease in postprandial blood glucose levels at 5 mg/kg administered 30 mins followed by oral sucrose challenge measured after 30 to 120 mins by OSTT. Format: functional, organism-based.
Assay [3] relates to Mus musculus. Put plainly: Antihyperglycemic activity in ICR mouse assessed as decrease in postprandial blood glucose levels at 5 mg/kg administered 30 mins followed by oral sucrose challenge measured after 30 to 120 mins by OSTT. It counts as functional, organism-based.
In assay [4] the test system is Mus musculus. Put plainly: Antihyperglycemic activity in nicotinamide/streptozotocin-induced ICR mouse hyperglycemic model assessed as decrease in postprandial blood glucose levels at 3.2 to 31.6 mg/kg, po administered 30 mins followed by oral sucrose challenge measured after 30 to 120 mins by OSTT. It counts as functional, organism-based.
Assay [5] relates to Mus musculus. Put plainly: Antihyperglycemic activity in ICR mouse assessed as decrease in postprandial blood glucose levels at 3.2 to 31.6 mg/kg, po administered 30 mins followed by oral sucrose challenge measured after 30 to 120 mins by OSTT. It counts as functional, organism-based.

IC50 and Activity data for four molecules are collected here from ChEMBL document CHEMBL4004802, “α-Glucosidase Inhibitors from Malbranchea flavorosea” (J Nat Prod, 2017).

The source made the active and inactive calls. The calls are words filed in the database; no cut-off is given here.

For `C[C@H](O)[C@H](O)C[C@H]1OCc2c(O)cccc21`, in assay [1], the IC50 (commonly the concentration needed to halve the response being measured) was 2250 µM.

On to `O=C1C=Cc2cccc(O)c2CO1`, for which, in assay [1], half-maximal inhibition (IC50) was put at 1070 µM.

Consider `C[C@H]1O[C@H](O[C@H]2[C@H](O)[C@@H](O)[C@@H](O[C@H]3[C@H](O)[C@@H](O)C(O)O[C@@H]3CO)O[C@@H]2CO)[C@H](O)[C@@H](O)[C@@H]1N[C@H]1C=C(CO)[C@@H](O)[C@H](O)[C@H]1O` (stereo partly drawn) [ACARBOSE], for which the result in assay [2] and in assay [3] was Active. In assay [1], this molecule came in with an IC50 of 500 µM.

On to `C=C1OC(=O)[C@]2([C@H](C)C=CC(=O)[C@@H]2O)[C@H]1O` [MASSARIGENIN C], for which the outcome in assay [4] and in assay [5] was Active. The molecule also had an IC50 in assay [1] of 1250 µM.
